Assay results from US20220112225A1, “ANANDAMIDE COMPOUNDS” (priority 2019, published 2022).

Legend:
[1] = In vitro brain homogenate stability, rat; format: in vitro ADME
Method: (§1) Fresh rodents brains were snap frozen immediately after collection and the assay performed on the same day. Brains were pre-incubated at 37° C. before being spiked with test compound at 1 μM. Samples were collected across 6 time points (0, 10, 20, 30, 45 and 60 minutes) and crashed in cold acetonitrile containing an internal standard (Leucine Enkephalin) and kept on ice until all samples had been collected. The samples were then shaken and centrifuged. 100 μL of supernatant was transferred to a plate containing 50 μL of MilliQ water and mixed. These plates were analyzed by LC-MS/MS over the 6 time points, where the percentage of test compound remaining was calculated using the peak area of the initial timepoint (T=0 minutes) as 100%. The natural log of the percentage remaining was then calculated. The natural log of the percentage remaining versus time (minutes) was plotted on a graph and the gradient of this graph was used to calculate the elimination rate constant (K), The half-life (t1/2) of test compound was calculated using the natural log of 2 divided by the elimination rate constant. The percentage of Compound 2 formed is reported below in Tables 4-6. FIGS. 9A-9F show results of the brain homogenate stability conducted with representative compounds of the Examples.

[2] = target: T1, hMfsd2a (Homo sapiens, UniProt Q8NA29); assay: In vitro Mfsd2a transport, UPLC-MS-MS analysis; format: cell-based; details: transfected HEK293 cells, 50 μM test compound, 1 hour
T1 construct: expressed in transfected cells; host or cells: HEK293
T1 sequence (Q8NA29 1-530 isoform Q8NA29-2): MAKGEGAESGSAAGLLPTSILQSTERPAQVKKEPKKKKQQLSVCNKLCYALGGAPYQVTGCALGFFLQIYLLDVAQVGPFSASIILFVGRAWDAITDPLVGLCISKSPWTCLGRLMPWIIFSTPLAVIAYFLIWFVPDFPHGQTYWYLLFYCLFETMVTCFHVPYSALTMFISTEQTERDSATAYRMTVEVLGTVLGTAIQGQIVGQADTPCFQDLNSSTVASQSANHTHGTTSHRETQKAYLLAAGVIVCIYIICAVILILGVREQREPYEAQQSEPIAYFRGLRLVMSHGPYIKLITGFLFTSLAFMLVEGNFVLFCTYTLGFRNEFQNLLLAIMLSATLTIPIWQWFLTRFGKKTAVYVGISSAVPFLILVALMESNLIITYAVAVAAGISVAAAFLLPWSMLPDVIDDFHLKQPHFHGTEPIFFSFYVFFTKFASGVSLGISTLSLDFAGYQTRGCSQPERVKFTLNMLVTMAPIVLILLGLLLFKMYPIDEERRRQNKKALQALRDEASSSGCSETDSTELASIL
Method: The assay was conducted in a low throughput 6-well format with HEK293 cells prepared and then transfected in duplicate wells with plasmids containing either the wildtype (WT) version of hMfsd2a, the D97A mutant version, or an empty vector as control. Uptake into the ceils was assessed by both thin-layer chromatography (TLC) and ultrahigh performance liquid chromatography hyphenated mass spectrometry.
HEK293 cells were seeded at 6.25×10^5 per 6-well in 2 mL of DMEM with 10% FBS and 1% penicillin-streptomycin (P/S) media (Sigma) and incubated overnight at 37° C. in 5% CO2. Cells were checked for confluency the next morning. On a per well basis the following lipid mix was generated, 6 μL of Lipofectamine 2000 was added dropwise to 200 μL of OptiMEM, this was left to stand for 5 minutes at room temperature (RT). 1 μg of hMfsd2a WT, D97A or empty plasmid was prepared in 200 μL of OptiMEM as appropriate for each well; the Lipofectamine 2000 in OptiMEM solution was then added dropwise to a total volume of 400 μL (this can be scaled to support the number of wells/plates to be assayed). This transfection preparation was then incubated at RT for 20 minutes. DMEM with 10% FBS and no P/S media was warmed to 37° C., the HEK293 plate media was changed and the cells washed carefully with 1 mL of the warmed DMEM with 10% FBS no P/S media, 1.6 mL of the warmed DMEM with 10% FBS no P/S media was then added to each well. 400 μL of the transfection preparation was then added dropwise to each well as appropriate and the plate was gently swirled in a circular motion. The plate was then incubated overnight at 37° C. in 5% CO2.
Compound Incubation and Preparation of Analysis Samples Compound stock solutions were prepared in a 12% BSA in PBS solution such that a 40 μL spike into 2 ml, of plain DMEM would yield a concentration of 50 μM of test compound (the compound treated media). Remaining compound stock solution in 12% BSA in PBS was frozen at −20° C. to allow for media stability testing. The HEK293 6-well plate was removed from the incubator and the wells gently rinsed with 1 mL of plain DMEM that had been prewarmed to 37° C. 2 mL of the compound treated media was then added to each well. A 100 μL sample of the compound treated media was sampled to represent a T=0 h sample; 5 μL of this sample (the remainder was reserved and frozen in case of re-analysis being required) was diluted with 45 μL of DMEM and crashed with 50 μL MeCN in a 96-well plate which was sealed and kept on ice. The HEK293 6-well plate was then incubated at 37° C. in 5% CO2 for 1 hour, the plate was then removed from the incubator and a 100 μL sample of media taken from each well to represent a T=1 h sample; 5 μL of this sample (the remainder was reserved and frozen in case of re-analysis being required) was diluted with 45 μL of DMEM and crashed with 50 μL MeCN into the 96-well plate which was re-sealed and stored at −20° C. The remaining media was then removed from the HEK293 6-well plate, the wells were gently rinsed twice with 1 mL of 0.5% BSA in DMEM, the media was then removed and the 6-well plate allowed to dry completely at RT. 1 ml of 3:2 Hexane:Isopropanol (HIP) was added to each well in a fume cupboard and the plate allowed to stand for 30 minutes at RT without shaking. The HIP solution was then transferred to 2 mL Eppendorf tubes, and the process was repeated with a second 1 mL aliquot of HIP and the two aliquots combined. The HIP samples were then dried down under a nitrogen stream.
HIP samples prepared as described above were reconstituted in 100 μL of MeCN, vortex mixed and inverted multiple times to ensure all surfaces of the Eppendorf tube were rinsed with the MeCN and finally pulse centrifuged. […]

[3] = In vitro brain homogenate stability, mouse; format: in vitro ADME
Method: as §1

[4] = one hour incubation, increasing formation of Compound 2

2-(5Z,8Z,11Z,14Z)-icosa-5,8,11,14-tetraenamidoethyl (trimethylammonio) ethylphosphate [Compound 3]
Rat t1/2 ([1]; 37° C., test compound at 1 μM): 0.933 h
Clearance in brain homogenate stability study (in words) [1, 4]: demonstrated a level of clearance
Transport via Mfsd2a: concentration in HIP samples from WT cells compared with D97A mutant Mfsd2a and/or empty vector cells [2]: transported via Mfsd2a
Mouse t1/2 ([3]; 37° C., test compound at 1 μM): 1.67 h
Clearance in brain homogenate stability study (in words) [3, 4]: demonstrated a level of clearance
